Like-named read-outs stand apart in the source and are kept apart here.

In assay [1] the test system is human stomach cancer cell line SNU-16 (FGFR2 gene amplification). The assay can be described thus: SNU-16 growth inhibition assay. It is filed as cell-based. The conditions noted are these: Homo sapiens, SNU-16, 72 h. The procedure:
In this assay, the growth inhibitory activity of a test substance in a human stomach cancer cell line harboring FGFR2 gene amplification is measured.
Then, 10 μL of Cell Counting Kit-8 (Dojindo Laboratories, CK04) was added to each well, and the resultant was incubated for 1 to 2 hours in a 5% CO2 incubator (37° C.) to cause a color reaction. The absorbance value was measured with ENVISION™ (PerkinElmer Co., Ltd.) at 450 nm.

Assay [2] relates to normal human umbilical vein endothelial cells (HUVEC). As to the kind of experiment: HUVEC growth inhibition assay (VEGF-induced). The format is cell-based. The conditions noted are these: Homo sapiens, HUVEC, 72 h. Here is the method:
The absorbance value was measured with ENVISION™ (PerkinElmer Co., Ltd.) at 450 nm. The absorbance values of the wells without adding the test substance but with VEGF addition was defined as 100% and the absorbance values of the wells with neither the test substance nor VEGF addition was defined as 0%.

Another assay concerns the target FGFR1 protein (Homo sapiens (Human), UniProt P11362). As to the kind of experiment: biochemical.
Assay [3] deals with human stomach cancer cell line SNU-16 xenograft. The assay can be described thus: Antitumor effect in SNU-16 subcutaneous xenograft model in mice. It is filed as in vivo. The conditions noted are these: oral, once a day for 11 days, tumor volume last day. From the text: Human stomach cancer cell line SNU-16, which had been cultured in an RPMI-1640 medium containing 10% FBS, and penicillin and streptomycin, were adjusted to a concentration of 1×10^8 cells/mL with Hanks' Balanced Salt Solution (GIBCO #24020) to prepare a cell suspension, and the suspension was mixed with […] (BD Biosciences, Cat#354234) in a ratio of 1:1 to prepare a cell suspension in a concentration of 5×10^7 cells/ml. The cell suspension was inoculated in a volume of 100 ut into a subcutaneous part of a right flank of nude mice, 6 to 7 weeks of ages (BALB/cAiel-nu/nu, female, Clea Japan Inc.). Seven days after cell inoculation, the shortest diameter and the longest diameter of a tumor in each mouse were measured by using an electronic digital caliper (Digimatie™ caliper, Mitutoyo Corporation), so as to calculate the volume of the tumor in accordance with the following calculation formula: Tumor volume(mm^3)Longest diameter(mm)×Shortest diameter(mm)×Shortest diameter(mm)/2
(§1) On the basis of the volumes of tumors obtained on the first day of administration, the nude mice were grouped such that averages of the tumor volumes were substantially equal among the groups. Each test substance was dissolved in DMSO, Tween 80 was added thereto to prepare a solution in a 10-fold concentration and the thus prepared solution was stored at the freezer before use. Immediately before the administration, the stock solution was diluted with a 5% glucose solution to obtain a final administration solution (in which a ratio in % among DMSO, Tween 80 and the 5% glucose solution was 3.5:6.5:90). Each evaluation sample was orally administered to test substance administration group at a volume of 0.4 mL per 20 g of body weight once a day continuously for 11 days, and in a control group, an administration solvent was orally administered under the same conditions. Incidentally, the experiment was conducted on groups each consisting of 5 mice.
(§2) With respect to each of the control group and test substance administration group, a ratio of the weight measured on the final day to the weight measured on the first day (relative body weight: RBW) was calculated. If a ratio of the RBW of the test substance administration group/the RBW of the control group is 0.9 or mom, the corresponding test substance administration group was defined as a well-tolerated. In the test substance administration group thus defined as well-tolerated, a ratio of the tumor volume of the test substance-dosing group to the tumor volume of the control group obtained on the last day (TIC) (%) was calculated, and shown in Table 21.

Assay [4] has as its system human lung cancer cell line NCI-H1581 xenograft. The assay can be described thus: Antitumor effect in NCI-H1581 subcutaneous xenograft model in mice. It is filed as in vivo. The conditions noted are these: oral, once a day for 11 days, tumor volume last day. Here is the method: Human lung cancer cell line NCI-H1581, which had been cultured in RPMI-1640 medium containing 10% FBS, and penicillin and streptomycin, were adjusted to a concentration of 1×10^8 cells/mL with Hanks' Balanced Salt Solution(GIBCO #24020) to prepare a cell suspension, and the suspension was mixed with […] in a ratio of 1:1 to prepare a cell suspension in a concentration of 5×10^7 cells/mL. The cell suspension was inoculated in a volume of 100 μL into a subcutaneous part of a right flank of each of nude mice, 6 to 7 weeks of ages (BALB/cAJcl-nu/nu, female, Clea Japan Inc.). Ten to 11 days after the cell inoculation, the shortest diameter and the longest diameter of a tumor in each mouse were measured by using an electronic digital caliper (Digimatic™ caliper, Mitutoyo Corporation), so as to calculate the volume of the tumor in accordance with the following calculation formula: Tumor volume(mm^3)=Longest diameter(mm)×Shortest diameter(mm)×Shortest diameter(mm)/2
as §1
as §2, with “more,” for “mom,”, “22.” for “21.”

The mark [5] stands for this setting: read-out: SNU-16 (IC50 (nM)), cell growth, 3 days, Cell Counting Kit-8.
The mark [6] stands for this setting: read-out: HUVEC (IC50 (nM)), growth in the presence of VEGF 10 ng/mL, 3 days.

FGFR1 protein, sequence (P11362 22-822): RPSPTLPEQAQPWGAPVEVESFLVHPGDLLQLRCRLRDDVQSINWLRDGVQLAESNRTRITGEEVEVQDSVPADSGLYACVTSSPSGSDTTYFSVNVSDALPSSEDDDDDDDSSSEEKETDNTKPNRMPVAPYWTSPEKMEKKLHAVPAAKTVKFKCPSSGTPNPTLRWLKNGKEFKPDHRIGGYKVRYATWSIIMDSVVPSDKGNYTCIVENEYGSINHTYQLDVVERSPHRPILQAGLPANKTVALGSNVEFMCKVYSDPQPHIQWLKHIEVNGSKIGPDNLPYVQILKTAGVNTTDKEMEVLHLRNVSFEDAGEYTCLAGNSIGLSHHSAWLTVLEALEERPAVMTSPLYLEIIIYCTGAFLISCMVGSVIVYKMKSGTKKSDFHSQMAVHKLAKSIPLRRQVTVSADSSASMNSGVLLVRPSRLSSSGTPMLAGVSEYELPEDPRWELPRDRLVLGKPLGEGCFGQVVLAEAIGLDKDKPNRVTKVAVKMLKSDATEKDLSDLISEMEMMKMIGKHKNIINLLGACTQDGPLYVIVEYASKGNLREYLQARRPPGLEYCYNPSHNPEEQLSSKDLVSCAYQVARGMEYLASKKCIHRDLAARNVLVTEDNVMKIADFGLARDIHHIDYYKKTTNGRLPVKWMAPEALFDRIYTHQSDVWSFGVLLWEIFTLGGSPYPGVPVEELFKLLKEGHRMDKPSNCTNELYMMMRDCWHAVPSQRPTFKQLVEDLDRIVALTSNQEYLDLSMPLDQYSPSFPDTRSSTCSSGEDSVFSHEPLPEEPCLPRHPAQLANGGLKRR

For the molecule `CNC(=O)n1ccc2cc(Oc3ccnc(NC(=O)c4ccc(C5CCNCC5)cc4)c3)c(OC)cc21` [Example 1, 6-Methoxy-N-methyl-5-((2-(4-(piperidin-4-yl)benzamide)pyridin-4-yl)oxy)-1H-indole-1-carboxamide], the IC50 in assay [1] (cell growth, 3 days, Cell Counting Kit-8, read-out: SNU-16 (IC50 (nM))) came to 7.5 nM; in assay [2] (growth in the presence of VEGF 10 ng/mL, 3 days, read-out: HUVEC (IC50 (nM))) it was 98.7 nM; on FGFR1 protein, 9.8 nM.
In the case of `CCN1CCC(c2ccc(C(=O)Nc3cc(Oc4cc5ccn(C(=O)NC)c5cc4OC)ccn3)cc2)CC1` [Example 2, 5-((2-(4-(1-Ethylpiperidin-4-yl)benzamide)pyridin-4-yl)oxy)-6-methoxy-N-methyl-1H-indole-1-carboxamide], the “T/C (%)” value came to 51% in assay [3] (6.25 mg/kg); 28% in assay [3] (12.5 mg/kg); 18% in assay [3] (25 mg/kg); 36% in assay [4] (6.25 mg/kg); 19% in assay [4] (12.5 mg/kg); 11% in assay [4] (25 mg/kg).
As for `CNC(=O)n1ccc2cc(Oc3ccnc(NC(=O)c4ccc(C5CCN(CCO)CC5)cc4)c3)c(OC)cc21` [Example 3, 5-((2-(4-(1-(2-Hydroxyethyl)piperidin-4-yl)benzamide)pyridin-4-yl)oxy)-6-methoxy-N-methyl-1H-indole-1-carboxamide], the entries for the “T/C (%)” value in assay [3] (6.25 mg/kg), in assay [3] (12.5 mg/kg) and in assay [3] (25 mg/kg) were 45%, 27% and 19%, respectively.
The matching figures for `CNC(=O)n1ccc2cc(Oc3ccnc(NC(=O)c4ccc(C5CCN(C[C@H](C)O)CC5)cc4)c3)c(OC)cc21` [Example 4, (S)-5-((2-(4-(1-(2-Hydroxypropyl)piperidin-4-yl)benzamide)pyridin-4-yl)oxy)-6-methoxy-N-methyl-1H-indole-1-carboxamide]: 40%, 27% and 15%.
Consider `CNC(=O)n1ccc2cc(Oc3ccnc(NC(=O)c4ccc(CN5CCC(O)CC5)cc4)c3)c(OC)cc21` [Example 9, 5-((2-(4-((4-Hydroxypiperidin-1-yl)methyl)benzamide)pyridin-4-yl)oxy)-6-methoxy-N-methyl-1H-indole-1-carboxamide], for which the “T/C (%)” value came out at 55% in assay [3] (25 mg/kg), 39% in assay [3] (50 mg/kg) and 30% in assay [3] (100 mg/kg).
Turning to `CCOc1cc2c(ccn2C(=O)NC)cc1Oc1ccnc(NC(=O)c2ccc(C3CCN(CC)CC3)cc2)c1` [Example 16, 6-Ethoxy-5-((2-(4-(1-ethylpiperidin-4-yl)benzamide)pyridin-4-yl)oxy)-N-methyl-1H-indole-1-carboxamide], the “T/C (%)” value in assay [3] (6.25 mg/kg) is 39%; in assay [3] (12.5 mg/kg) it was 21%; in assay [3] (25 mg/kg) it was 15%; in assay [4] (6.25 mg/kg) it was 50%; in assay [4] (12.5 mg/kg) it was 25%; in assay [4] (25 mg/kg), 15%.
On to `CNC(=O)n1ccc2cc(Oc3ccnc(NC(=O)c4ccc(C5CCN(C)CC5)cc4)c3)c(OCCOC)cc21` [Example 21, 6-(2-Methoxyethoxy)-N-methyl-5-((2-(4-(1-methylpiperidin-4-yl)benzamide)pyridin-4-yl)oxy)-1H-indole-1-carboxamide], for which the “T/C (%)” value in assay [3] (6.25 mg/kg) turned out to be 49%; in assay [3] (12.5 mg/kg), 26%; in assay [3] (25 mg/kg) it was 16%; in assay [3] (50 mg/kg), 7%; in assay [4] (6.25 mg/kg) it was 36%; in assay [4] (12.5 mg/kg), 18%. Moreover, the “T/C (%)” value in assay [4] (25 mg/kg) came out at 10%; in assay [4] (50 mg/kg), 6%.
Turning to `CCOCCOc1cc2c(ccn2C(=O)NC)cc1Oc1ccnc(NC(=O)c2ccc(C3CCN(CCO)CC3)cc2)c1` [Example 25, 6-(2-Ethoxyethoxy)-5-((2-(4-(1-(2-hydroxyethyl)piperidin-4-yl)benzamide)pyridin-4-yl)oxy)-N-methyl-1H-indole-1-carboxamide], the IC50 amounted to 3.8 nM in assay [1] (setting [5]) and 191 nM in assay [2] (setting [6]). In addition, the “T/C (%)” value was 31% in assay [3] (6.25 mg/kg), 23% in assay [3] (12.5 mg/kg), 14% in assay [3] (25 mg/kg) and 12% in assay [3] (50 mg/kg).
For `CCOCCOc1cc2c(ccn2C(=O)NC)cc1Oc1ccnc(NC(=O)c2ccc(C3CN(CC)C3)cc2)c1` [Example 26, 6-(2-Ethoxyethoxy)-5-((2-(4-(1-ethylazetidin-3-yl)benzamide)pyridin-4-yl)oxy)-N-methyl-1H-indole-1-carboxamide], the IC50 in assay [1] (setting [5]) was 5.6 nM; in assay [2] (setting [6]) it was 258 nM. For the same molecule, the “T/C (%)” value in assay [3] (6.25 mg/kg) was 45%; in assay [3] (12.5 mg/kg), 36%; in assay [3] (25 mg/kg) it was 22%; in assay [3] (50 mg/kg), 27%.

The values are drawn from patent US8933099B2, “Monocyclic pyridine derivative” (Eisai R&D Management Co., Ltd., priority 2013, dated 2015).
